Results from US20260167659A1, “STING AGONISTS” (LIGACHEM BIOSCIENCES INC., priority 2022, published 2026).

Experiments:
[1] = test system: Human THP-1 cells; test: THP-1 activation, CD86 and HLA-DR by flow cytometry; type: cell-based; details: THP-1, 5-fold serial dilution from 1 μM, 48 hours
Protocol: To test the effect of STING agonist compounds described herein in the activation of innate and adaptive immune cells, flow cytometry (FACS) was performed. Human THP-1 cells (Korean Cell Line Bank, #40202) and PBMCs were seeded at 1.2×10^5 cells per well in a round-bottomed 96-well plate in RPMI 1640 medium (Gibco, #22400097) supplemented with 10% heat-inactivated FBS and 1× Antibiotic-Antimycotic (Gibco, #15240062) and rested for 24 hours at 37° C. The cells were stimulated with the STING agonist compounds as described; For THP-1 stimulation, the cells were treated with the STING agonist compound (Compound 313) in a 5-fold serial dilution from 1 μM for 48 hours. The induction of cell surface activation markers, CD86 (co-stimulatory molecule) and HLA-DR (MHC-class II), was measured by flow cytometry. […] For flow cytometry analysis, the stimulated cells were centrifuged at 300 g for 5 minutes at 4° C., and then resuspended in FACS buffer (2% FBS, 2 mM EDTA in PBS). […] Subsequently, the cells were stained with fluorescence-conjugated antibodies against CD8, CD3, CD56, and CD69 for CD8 T and NK cells activation and against CD86 and MHC-II for THP-1 naïve cells activation for 40 minutes at 4° C. After washing three times with FACS buffer, the cells were resuspended in FACS buffer and analyzed by FACSlyric (BD bioscience). The data were analyzed with Flowjo 9.0 software (BD bioscience).

[2] = molecular target: T1, human STING (Homo sapiens, UniProt Q86WV6, H232R); test: Direct STING binding, HUMAN STING WT BINDING KIT (Cisbio); details: direct binding to human STING WT protein in vitro; read-out: Binding potency EC50
T1 construct: purchased Cisbio 64BDSTGPEG
T1 sequence (Q86WV6 whole entry H232R): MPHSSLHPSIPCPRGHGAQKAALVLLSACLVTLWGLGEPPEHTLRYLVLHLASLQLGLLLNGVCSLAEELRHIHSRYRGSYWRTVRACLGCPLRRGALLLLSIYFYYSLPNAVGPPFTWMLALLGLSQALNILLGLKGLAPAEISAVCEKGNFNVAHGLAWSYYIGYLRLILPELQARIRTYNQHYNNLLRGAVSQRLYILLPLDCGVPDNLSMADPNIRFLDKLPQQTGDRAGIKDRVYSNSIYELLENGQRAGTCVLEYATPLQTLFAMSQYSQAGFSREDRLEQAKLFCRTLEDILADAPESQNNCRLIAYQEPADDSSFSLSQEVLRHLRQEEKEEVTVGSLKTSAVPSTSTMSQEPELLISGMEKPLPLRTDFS
Excerpt: Additionally, for analysis of direct binding potency of STING agonist compounds described herein to human STING, HUMAN STING WT BINDING KIT (Cisbio, #64BDSTGPEG) was used according to the manufacture's instruction.

[3] = Normal cell cytotoxicity in CD34+ HSC, CellTiter-Glo; type: cell-based; details: human, CD34+ hematopoietic stem cells (HSCs), read-out: In vitro cell cytotoxicity in CD34+ HSC CC50
Protocol: The CD34^+ hematopoietic stem cells (HSCs) were purchased from […]™ (#70002.3). The cells (2×10^4 cells per well) were cultured in StemSpan™ SFEM II medium supplemented with StemSpan™ CD34+ Expansion Supplement (#02691) in a 6-well plate at 37° C. for 7 days. On day 3 or 4, an equal volume of fresh complete medium was added into the cell culture. On day 7, the cells (4×10^4 cells per well) were seeded in a 96-well white plate and rested for 24 hours in the same condition.
After 72 hours, the cell viability was measured using CellTiter-Glo Luminescent Cell Viability Assay (Promega, #G7573) according to the manufacture's instruction. The signal was detected using an EnVision Xcite multilabel reader and data were analyzed using GraphPad Prism 8 software.

[4] = molecular target: T2, hSTING-WT (R232) (Homo sapiens, UniProt Q86WV6, H232R); test: STING activation, THP1-Dual IRF3 reporter assay, hSTING-R232 cells; type: cell-based; details: IRF3 luciferase reporter, 24 hours, read-out: STING activity using hSTING-R232 cells EC50
T2 construct: host or cells: THP1-Dual cells (human monocytes) with knocked-in hSTING R232
T2 sequence (Q86WV6 whole entry H232R): as above
Method in brief: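 THP1-Dual monocytes carrying knocked-in hSTING-WT (R232), H232 or HAQ variants were seeded at 9.0×10^4 cells per well and treated next day with serially diluted compounds for 24 h. Secreted IRF-Lucia luciferase in the supernatant was read by luminescence, and EC50 values were fitted with a 4-parameter model.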

[5] = Normal cell cytotoxicity in PBMCs, CellTiter-Glo; type: cell-based; details: human, read-out: In vitro cell cytotoxicity in PBMCs CC50
Method in brief: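 PBMCs at 8.0×10^4 cells/well in RPMI 1640 with 10% FBS were rested 24 h at 37 °C. Cells were then exposed to the STING agonists for 72 h. Viability was read by CellTiter-Glo luminescence and expressed as percentage cell death.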

[6] = molecular target: T3, hSTING H232 variant (Homo sapiens, UniProt Q86WV6); test: STING activation, THP1-Dual IRF3 reporter assay, hSTING-H232 cells; type: cell-based; details: IRF3 luciferase reporter, 24 hours, read-out: STING activity using hSTING-H232 cells, H232 EC50
T3 construct: host or cells: THP1-Dual cells (human monocytes) with knocked-in hSTING H232
Protocol: To assess potency of STING agonist compounds described herein, THP1-Dual™ Cells (NF—KB-SEAP and IRF-Lucia luciferase reporter monocytes, InvivoGen) were used. The reporter cells were knocked-in either of hSTING-WT (R232, #thpd-r232), HAQ variant (#thpd-nfis), or H232 variant (#thpd-h232). All cells were cultured at 37° C. in a humidified incubator at 5% CO2 and maintained in RPMI 1640 medium (Gibco, #22400097) supplemented with 10% heat-inactivated FBS and 1×Pen-Strep (Gibco, #15140122). To measure STING agonist-mediated IRF3 activity, the cells (9.0×10^4 cells per well) were seeded in a flat-bottomed 96-well plate. The next day, the cells were treated with compounds in a serial dilution for 24 hours. Subsequently, 20 μL of the cell culture supernatant and 50 μL of the QUANTI-Luc™ reagent (InvivoGen, #rep-qlc) were mixed in a 96-well white plate and then, luciferase activity was measured using an EnVision Xcite multilabel reader. The data were analyzed using Prism8 software (4-parameter).
The potency of STING agonist compounds was evaluated by the activation of Type I Interferon pathway using THP-1 IRF3 reporter assay.

**Q.** With `CCn1nc(C)cc1C(=O)Nc1nc2cc(C(N)=O)cc(OC/C=C/Cn3cc(NC(=O)OCc4ccc(O[C@@H]5O[C@H](C(=O)O)[C@@H](O)[C@H](O)[C@H]5O)c(C(=O)NCCOCCOCCN(C)C)c4)cn3)c2n1C/C=C/Cn1c(NC(=O)c2cc(C)nn2CC)nc2cc(C(N)=O)cc(OCCCC(=O)O)c21` [Compound 313] as the compound, how does the “co-stimulatory molecule CD86 on cell surface” value ([1]; FIG. 3A) read?
**A.** Its value is “Up-regulation”.

**Q.** What about the “MHC class II molecule HLA-DR on cell surface” value ([1]; FIG. 3B) of the same compound?
**A.** Its value is “Up-regulation”.

**Q.** And the EC50 [2]?
**A.** Its EC50 is 0.08 nM.

**Q.** And the CC50 at 72 h [3]?
**A.** The CC50 at 72 h was 44.5 nM.

**Q.** What about the EC50 [4] of the same compound?
**A.** Its EC50 is 68.3 nM.

**Q.** And the CC50 at 72 h [5]?
**A.** Its CC50 at 72 h is 98 nM.

**Q.** What about the EC50 [6] of the same compound?
**A.** The EC50 was 216 nM.
